Assay results as given in article PMC12730863 (Biomedicines, 2025).

What was measured:
HCT-8 cells [1] = assay: Cytotoxicity assay (MTT, 72 h); type: cell-based, human; conditions: for Fold Resistance / IC50: HCT-8, chemotherapeutic drug alone; for Fold Resistance: relative to IC50 of HCT-8 without inhibitors
Experimental: (§1) Cells were seeded into 96-well plates at a concentration of 5 × 10^3 cells per well. Following cell attachment, the respective agents were added for a 72-h incubation period. Upon treatment completion, 500 μg/mL MTTwas added and the plates were incubated for 4 h. Subsequently, the supernatant was carefully aspirated, and 50 μL DMSO was added. Absorbance at 570 nm was measured via BioTek Synergy H1 plate reader (Agilent Technologies, Santa Clara, CA, USA). IC50 values were calculated with GraphPad Prism 8.0.

HCT-8/V cells [2] = assay: Cytotoxicity assay (MTT, 72 h); type: cell-based, human; conditions: for IC50 / Fold Resistance: chemotherapeutic drug alone; for Fold Resistance: relative to IC50 of HCT-8 without inhibitors
Experimental: All cell lines were grown in Dulbecco’s modified Eagle’s medium supplemented with 10% CellMax fetal bovine serum (#SA301.02.V) from Lanzhou Minhai Bio-Engineering Co. (Lanzhou, China) and maintained in a humidified incubator at 37 °C with 5% CO2.
as §1

HCT-8/V cells [3] = assay: Drug accumulation assay (flow cytometry); type: cell-based, human
Experimental: (§2) Fluorescence imaging was performed using an Olympus CKX53 microscope (Tokyo, Japan) to assess the intracellular accumulation of the substrate drugs. Subsequently, cells were harvested, and fluorescent quantitative analysis was conducted using a Beckman CytoFLEX flow cytometer. The data were processed via FlowJo v10.8 software.

HCT-8 cells [4] = assay: Drug accumulation assay (flow cytometry); type: cell-based, human; conditions: HCT-8 parental cells
Experimental: as §2

ABCB1 [5] = assay: Western blot of ABCB1 expression in HCT-8/V cells; type: cell-based, human; conditions: 10 μM and 30 μM H89 for 0.5, 3 and 72 h
Experimental: Cells were placed in pre-cooled lysis buffer (containing 0.1% sodium dodecyl sulfate, 0.5% sodium deoxycholate, 1% Nonidet P-40, 10 ng/mL phenylmethanesulfonyl fluoride and 0.03% aprotinin) and lysed on ice for 30 min. After centrifugation (14,000× g, 10 min), the clear supernatant was collected. Proteins were separated by 10% sodium dodecyl sulfatepolyacrylamidegel electrophoresis and subsequently transferred to polyvinylidene difluoride membranes. The membranes were blocked with 5% BSA at room temperature for 1 h, followed by sequential incubation with primary antibodies specific to the target protein and horseradish peroxidase-conjugated secondary antibodies. Ultimately, signal detection was conducted via chemiluminescence using a gel imaging system from Bio-Rad Laboratories.

ABCB1 [6] = target: T1, ABCB1 (Homo sapiens, UniProt P08183); assay: ABCB1 ATPase activity assay; type: biochemical; conditions: 5 mM Mg2+-ATP, 37 °C, 40 min, luminescence; read-out: IC50 of inhibition of the ATPase activity of ABCB1
T1 construct: purchased Promega Corporation V3601
T1 sequence (P08183 whole entry): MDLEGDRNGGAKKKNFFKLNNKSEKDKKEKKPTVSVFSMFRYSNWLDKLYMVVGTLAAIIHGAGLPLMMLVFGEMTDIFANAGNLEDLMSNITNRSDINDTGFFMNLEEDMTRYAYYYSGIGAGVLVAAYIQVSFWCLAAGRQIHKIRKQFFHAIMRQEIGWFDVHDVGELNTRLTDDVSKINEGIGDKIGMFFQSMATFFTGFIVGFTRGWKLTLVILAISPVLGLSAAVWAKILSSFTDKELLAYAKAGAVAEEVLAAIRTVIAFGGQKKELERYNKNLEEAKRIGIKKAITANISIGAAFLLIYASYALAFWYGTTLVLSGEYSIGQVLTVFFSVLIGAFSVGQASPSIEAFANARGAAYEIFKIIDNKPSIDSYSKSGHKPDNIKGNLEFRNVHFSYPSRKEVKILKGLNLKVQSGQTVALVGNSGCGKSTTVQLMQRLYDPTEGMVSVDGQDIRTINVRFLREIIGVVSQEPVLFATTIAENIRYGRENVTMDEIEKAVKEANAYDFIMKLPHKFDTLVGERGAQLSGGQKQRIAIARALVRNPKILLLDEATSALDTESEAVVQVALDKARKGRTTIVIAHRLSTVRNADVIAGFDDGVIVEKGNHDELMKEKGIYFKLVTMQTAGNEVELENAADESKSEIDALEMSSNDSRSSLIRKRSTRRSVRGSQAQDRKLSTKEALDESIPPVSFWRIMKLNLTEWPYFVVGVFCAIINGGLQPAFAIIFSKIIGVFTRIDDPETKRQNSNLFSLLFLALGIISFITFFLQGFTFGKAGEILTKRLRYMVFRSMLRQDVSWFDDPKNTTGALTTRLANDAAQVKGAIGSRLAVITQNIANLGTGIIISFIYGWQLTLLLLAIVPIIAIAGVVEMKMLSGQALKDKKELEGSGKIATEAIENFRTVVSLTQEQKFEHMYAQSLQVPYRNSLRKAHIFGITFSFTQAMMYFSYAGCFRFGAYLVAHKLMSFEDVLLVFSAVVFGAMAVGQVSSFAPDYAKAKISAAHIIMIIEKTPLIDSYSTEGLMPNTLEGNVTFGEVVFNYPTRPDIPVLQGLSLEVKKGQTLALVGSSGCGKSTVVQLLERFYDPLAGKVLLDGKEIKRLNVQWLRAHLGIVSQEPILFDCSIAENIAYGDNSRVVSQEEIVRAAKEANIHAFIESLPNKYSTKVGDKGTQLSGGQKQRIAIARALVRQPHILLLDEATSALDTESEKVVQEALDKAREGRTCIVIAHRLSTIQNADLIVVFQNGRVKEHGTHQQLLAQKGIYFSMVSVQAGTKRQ
Experimental: The detection was performed using anABCB1 ATPase Activity Assay Kit (#V3601, Promega Corporation, Madison, WI, USA). […] Subsequently, 5 mM Mg^2+-ATP was introduced to initiate the ATPase activity reaction. […] Finally, the emitted light was measured with a multi-functional microplate reader manufactured by Gene Company Limited (Chai Wan, Hong Kong).

COc1cccc2c1C(=O)c1c(O)c3c(c(O)c1C2=O)C[C@@](O)(C(=O)CO)C[C@@H]3O[C@H]1C[C@H](N)[C@H](O)[C@H](C)O1 [Doxorubicin, doxorubicin]
Fold Resistance (HCT-8 cells [1]): 1.0 fold
IC50 (HCT-8 cells [1]; Homo sapiens, 72 h MTT): 0.35 ± 0.081 µM
IC50 (HCT-8/V cells [2]; Homo sapiens, 72 h MTT): 6.98 ± 0.444 µM
Fold Resistance (HCT-8/V cells [2]): 19.94 fold

O=S(=O)(NCCNCC=Cc1ccc(Br)cc1)c1cccc2cnccc12 [H89, N-[2-(p-bromocinnamylamino)ethyl]-5-isoquinolinesulfonamide]
Fold Resistance to Doxorubicin in combination (HCT-8 cells [1]; HCT-8, Doxorubicin + 3 μM of the labelled inhibitor): 1.06 fold
Fold Resistance to Doxorubicin in combination (HCT-8 cells [1]; HCT-8, Doxorubicin + 10 μM of the labelled inhibitor): 1.05 fold
Fold Resistance to Oxaliplatin in combination (HCT-8 cells [1]; HCT-8, Oxaliplatin + 3 μM of the labelled inhibitor): 0.96 fold
Fold Resistance to Oxaliplatin in combination (HCT-8 cells [1]; HCT-8, Oxaliplatin + 10 μM of the labelled inhibitor): 0.91 fold
Fold Resistance to Vincristine in combination (HCT-8 cells [1]; HCT-8, Vincristine + 3 μM of the labelled inhibitor): 0.96 fold
Fold Resistance to Vincristine in combination (HCT-8 cells [1]; HCT-8, Vincristine + 10 μM of the labelled inhibitor): 0.88 fold
Cytotoxicity of H89 alone (HCT-8 cells [1]; HCT-8, at concentrations below 30 μM, 72 h MTT): low cytotoxicity
Intracellular accumulation of substrate drugs compared with verapamil (HCT-8/V cells [3]; 10 μM H89 vs 10 μM verapamil): achieved or even exceeded the inhibitory effect of verapamil
Intracellular rhodamine 123 levels (HCT-8/V cells [3]; 30 μM H89): comparable to that in HCT-8 cells
Intracellular accumulation of doxorubicin and rhodamine 123 (HCT-8/V cells [3]; 1 h pretreatment, then 10 μM doxorubicin or rhodamine 123 for 2 h): elevated doxorubicin and rhodamine 123 levels in HCT-8/V cells dose-dependently
Intracellular accumulation of doxorubicin and rhodamine 123 (HCT-8 cells [4]): not observed
ABCB1 protein level relative to β-tubulin (ABCB1 [5]): did not alter ABCB1 protein level
IC50 (ABCB1 [6]): 0.246 µM
Fold Resistance to Doxorubicin in combination (HCT-8/V cells [2]; Doxorubicin + 3 μM of the labelled inhibitor): 4.53 fold
Fold Resistance to Doxorubicin in combination (HCT-8/V cells [2]; Doxorubicin + 10 μM of the labelled inhibitor): 1.85 fold
Fold Resistance to Oxaliplatin in combination (HCT-8/V cells [2]; Oxaliplatin + 3 μM of the labelled inhibitor): 0.89 fold
Fold Resistance to Oxaliplatin in combination (HCT-8/V cells [2]; Oxaliplatin + 10 μM of the labelled inhibitor): 0.79 fold
Fold Resistance to Vincristine in combination (HCT-8/V cells [2]; Vincristine + 3 μM of the labelled inhibitor): 5.60 fold
Fold Resistance to Vincristine in combination (HCT-8/V cells [2]; Vincristine + 10 μM of the labelled inhibitor): 1.88 fold
Cytotoxicity of H89 alone (HCT-8/V cells [2]; at concentrations below 30 μM, 72 h MTT): low cytotoxicity

O=C1[O][Pt]2([NH][C@@H]3CCCC[C@H]3[NH]2)[O]C1=O [Oxaliplatin, oxaliplatin]
IC50 (HCT-8 cells [1]; 72 h MTT): 9.3 ± 0.549 µM
Fold Resistance (HCT-8 cells [1]): 1.0 fold
IC50 (HCT-8/V cells [2]; 72 h MTT): 10.1 ± 0.09 µM
Fold Resistance (HCT-8/V cells [2]): 1.08 fold

CC[C@]1(O)C[C@H]2CN(CCc3c([nH]c4ccccc34)[C@@](C(=O)OC)(c3cc4c(cc3OC)N(C=O)[C@H]3[C@@](O)(C(=O)OC)[C@H](OC(C)=O)[C@]5(CC)C=CCN6CC[C@]43[C@@H]65)C2)C1 [Vincristine, vincristine]
IC50 (HCT-8 cells [1]; Homo sapiens, 72 h MTT): 0.025 ± 0.002 µM
IC50 (HCT-8/V cells [2]; Homo sapiens, 72 h MTT): > 30 µM
